Measured values from US6403635B1, “Method of treating atherosclerosis or restenosis using microtubule stabilizing agent” (The United States of America as represented by the …, priority 1993, dated 2002).

Assays:
[1] = test system: VSMC; assay: Bromodeoxyuridine (BrDU) incorporation in cultured VSMC; assay type: cell-based, rat; conditions: various 2H2O concentrations
Procedure: Incorporation of the thymidine analog, bromodeoxyuridine (BrDU) was measured to determine the effect of deuterium oxide on VSMC DNA synthesis. […] Following 20 hr incubation in 10% FCS+DMEM at various ^2H2O concentrations, 10 μM BrDU was added and the incubation continues for an additional 4 hr. […] The cells were incubated for 2 hr with 1N HCl to denature the DNA, and subsequently washed 4 times in PBS. Mouse monoclonal BrDU antibody (Boehringer Mannheim) in 2% BSA-PBS was incubated with cells for 1 hr. After PBS wash, goat anti-mouse antibody conjugated with alkaline phosphatase was added. Cell nuclei containing BrDU substituted for thymidine stained red with alkaline phosphatase substrate, while all other nuclei stained blue. The fraction of BrDU-positive nuclei was compared between control (defined as 100%) and that of the deuterium oxide-pretreated groups.

[2] = test system: Vascular Smooth Muscle Cells (VSMCs); assay: Chemoinvasion (Boyden chamber) assay, PDGF-BB as attractant; assay type: cell-based, rat
Procedure: Vascular Smooth Muscle Cells (VSMCs) were isolated by collagenase/elastase enzymatic digestion of the medial layers of the rat aorta obtained from 6 month old Wistar rats. The cells were maintained in culture with 10% fetal calf serum, high glucose DMEM, and amino acid supplement. Cell cultures were maintained at 37° C. in 5% CO2.
(§1) Chemoinvasion (Boyden chamber) assays were performed using modified Boyden chamber (Albini, et al. (1987) Cancer Res., 47:3239-3245), comprising an upper chamber separated from a lower chamber by a porous PVPF filter. PVPF filters (8 μm pore diameter, Nucleopore Filters, Pleasanton, Calif.) were coated and air dried consecutively with solutions containing 100 μg/ml type I collagen, 5 μg/ml fibronectin, and 5 μg reconstituted basement membrane (produced from the Englebreth-Holm-Swarm tumor (Kleinman, et al. (1986) Biochemistry, 25:312-318), producing a continuous 10 μm thick coating of matrix material. Boyden chambers were assembled by adding 10 ng/ml PDGF BB in DMEM to the lower (chemoattractant) chamber. Cells (approximately 200,000) suspended in DMEM containing 0.1% BSA were then added to the upper chamber. […] The chambers were then incubated for 4 hours at 37° C. in a 5% CO2 atmosphere. At the end of the incubation period, the cells were fixed and stained with hematoxylin and eosin. The cells on the upper surface (non-invaders) were mechanically removed and the cells on the underside of the filter (invaders) were counted under 400× magnification (four random fields were counted per filter and all experiments were run in triplicate, and each triplicate assay was repeated at least three times on separate occasions using different VSMC preparations). Chemotaxis was assayed in analogous fashion in the Boyden chambers described above, except that the reconstituted basement membrane was omitted.
VSMC's were isolated by collagense/elastase enzymatic digestion of the medial layers of the rat aorta obtained from 6 month old Wistar rats. The cells were maintained in culture with 10% fetal calf serum, high glucose DMEM, and amino acid supplement. Cell cultures were maintained at 37° C. in 5% CO2.
Chemoinvasion assays were performed using a modified Boyden chamber, consisting of an upper chamber separated from a lower chamber by a porous PVPF filter. PVPF filters (8 μm pore diameter, Nucleopore Filters Pleasanton, Calif.) were coated and air dried consecutively with solutions containing 100 μg/ml type I collagen, […] fibronectin, and 5 μg reconstituted basement membrane (produced from the Englebreth-Holm-Swarm tumor), producing a continuous 10 μm thick coating of matrix material. Boyden chambers were assembled with PDGF-BB 10 ng/ml in DMEM in the lower (chemoattractant) chamber, then cells (approximately 200,000) suspended in DMEM containing 0.1% BSA were added to the upper chamber. Some of the cells used in these assays were pretreated 18 hours with deuterium oxide (25%, 50%, or 75% v/v substitution for H2O) in culture. In the deuterium oxide-treated groups, ^2H2O substituted DMEM (v/v) was added to the upper and lower chambers at the same concentration as that used for pretreatment. The chambers were then incubated for 4 hours at 37° C. in a humidified 5% CO2 atmosphere. […] After the cells on the upper surface of the filter (non-invaders) were mechanically removed, the cells on the underside (invaders) were counted under 400 X magnification (four random fields were counted per filter and all experiments were run in triplicate).

[3] = test system: polymerized tubulin; assay: Microtubule bundling in cultured VSMC (anti-tubulin antibody labelling); assay type: cell-based, rat
Description: In deuterium oxide-treated cells, ^2H2O (v/v) was substituted for water (H2O) in the preparation of the DMEM from concentrated stock. […], cells were fixed in 3.7% formalin, premeabilized with 1% Triton X-100, and polymerized tubulin was labelled with mouse anti-β-tubulin antibody (SMI 62 monoclonal antibody to polymerized β-tubulin, Paragon Biotec, Inc., Baltimore, Md.). […] Representative light photomicrographs from (FIG. 5A) control, and (FIG. 5B) 75% deuterium oxide treated VSMCs are shown in FIGS. 5A-5B.

[4] = test system: VSMC collagenase secretion; assay: Gelatinase zymography of Boyden assay supernatants; assay type: cell-based, rat; conditions: taxol range 30 pM to 100 nM
Procedure: Gelatinase zymography was performed on the superannuates removed after the 4 hour conclusion of the Boyden assays described above. Gelatin-degrading proteinases secreted into the media by VSMCs were analyzed by non-reducing sodium dodecyl sulfate-polyacrylamide gel electrophoresis in 10% polyacrylamide gels containing 0.1% (w/v) gelatin. Following electrophoresis, the gelatinases were renatured by incubating the gel for 30 min. at 23° C. in 2.5% (v/v) Triton X-100 followed by 18 hour incubation at 37° C. in 0.2 M NaCl, 5 mM CaCl2 0.02% Brij 35 (w/v), 50 mM Tris-HCI (pH 7.6). The gels were stained for 90 minutes with 0.5% Coomassie Brilliant Blue G-250 and destained with 10% acetic acid, 40% methanol. Gelatinolytic activity was indicated by a clear band against the background of the blue-stained gelatin.

[5] = test system: VSMC; assay: Chemotaxis assay (Boyden chamber without basement membrane proteins), PDGF-BB as attractant; assay type: cell-based, rat; conditions: filter coated only with fibronectin and collagen I
Procedure: as §1, with “Chemotaxis was assayed in analogous fashion in the Boyden chambers described above, except that the reconstituted basement membrane was omitted.” left out

[6] = test system: c-fos mRNA expression; assay: PDGF-BB-stimulated c-fos mRNA expression in cultured VSMC; assay type: cell-based, rat
[7] = test system: VSMC; assay: [3H]thymidine incorporation in cultured VSMC
[8] = test system: rat carotid artery; assay: Balloon catheter injury of the rat carotid artery (restenosis model); assay type: in vivo, Wistar rats
Procedure: Under a protocol approved by the National Institute on Aging Animal Care and use Committee, 6 month Wistar rats from the GRC colony wee anesthetized with 20 mg/kg body weight phenobarbital, 2 mg/kg body weight ketamine, and 4 mg/kg body weight xylazine intraperitoneally. The left external carotid artery was cannulated with 2-French Fogarty embolectomy catheter, inflated with saline and passed three times up and down the common carotid artery to produce a distending, deendothelializing injury. […] Cross sections of the carotids were mounted on microscope slides and stained with hematoxylin and eosin stain. The image of the carotid artery was projected onto a digitizing board and the cross sectional areas of the intima and the media were measured. As indicated in the prior art (Ferns, G. A. A. et al. (1991) Science, 253:1129-1132) the rat carotid artery injury model of restenosis can be useful in the study of human restenosis, and indicate potential therapeutic action in humans.

[9] = cross sectional area, 2 mg/kg i.p., 11 days after injury

[2H]O[2H] [deuterium oxide]
effect on cultured VSMC proliferation and DNA synthesis (BrDU incorporation) [1]: inhibited cultured VSMC proliferation and DNA synthesis in a dose-dependent fashion
inhibition of VSMC Boyden chamber invasion at 75% 2H2O ([2]; 75% 2H2O): nearly complete inhibition
half-maximal inhibition of PDGF-mediated VSMC Boyden chamber invasion ([2]; 18 h pretreatment, v/v substitution for H2O): 25 % 2H2O
microtubule hyperpolymerization in cultured VSMCs ([3]; 18 hours with 25%, 50% or 75% deuterium oxide): dose-dependent microtubule hyperpolymerization

CC(=O)O[C@H]1C(=O)[C@@]2(C)[C@H]([C@H](OC(=O)c3ccccc3)[C@]3(O)C[C@H](OC(=O)[C@H](O)[C@@H](NC(=O)c4ccccc4)c4ccccc4)C(C)=C1C3(C)C)[C@]1(OC(C)=O)CO[C@@H]1C[C@@H]2O [Taxol]
level of VSMC collagenase secretion compared to control [4]: did not vary significantly
outcome of chemotaxis assay compared with chemoinvasion assay [5]: identical outcome
IC50 ([6]; Rattus norvegicus, cultured VSMC, read-out: half-maximal inhibitory concentration, PDGF-BB-stimulated c-fos mRNA expression): 1 nM
inhibition of c-fos mRNA expression above 20 nM ([6]; above 20 nM taxol): essentially complete inhibition
inhibition of [3H]thymidine incorporation at 1 nM ([7]; 1 nM taxol): significant inhibition
inhibition of [3H]thymidine incorporation at 100 nM ([7]; 100 nM taxol): essentially complete inhibition
IC50 ([7]; Rattus norvegicus, VSMC, read-out: half-maximal inhibitory concentration, VSMC [3H]thymidine incorporation): 5 nM
inhibition of VSMC invasion at 30 pM ([2]; 30 pM (the lowest dose used)): significant inhibition
inhibition of VSMC invasion at 100 nM ([2]; 100 nM taxol): essentially complete inhibition
IC50 ([2]; Rattus norvegicus, VSMC, 18 h pretreatment, PDGF-BB attractant, 4 h incubation, read-out: half-maximal inhibitory concentration, VSMC invasion): 0.5 nM
reduction of neointimal area compared to vehicle treated animals ([8]; 2 mg/kg i.p. once daily, 11 days after injury): 70%
Intima [8, 9]: 0.03 ± 0.01 mm^2
Media [8, 9]: 0.16 ± 0.02 mm^2
I/M ([8]; intima/media ratio, 2 mg/kg i.p., 11 days after injury): 0.18 ± 0.04
discernible neointima in taxol-treated animals ([8]; several of the taxol-treated animals, denuded endothelium present): virtually no discernible neointimal
microtubule bundling in VSMC's cultured on plastic ([3]; 0.1, 1, 10 nM taxol, 18-hour pre-treatment): dose-dependent microtubule bundling
